Data reported in US9464064B2, “HCV helicase inhibitors and methods of use thereof” (University of Kansas, priority 2011, dated 2016).
Starred links: 1 amine or outer side, 2 acyl side, 3 side chain; linkers in the order of their positions; H or OH if unused. Positions of bridges follow the written chain, without caps; N, C: chain ends. Non-standard residues stand in square brackets, D forms with d. Residues, ends and D or L forms follow the SMILES beside them. Chains are numbered I, II in the order given. Actinocin(9to1) = Cc1c2oc3c(C)ccc(C(=O)[*:1])c3nc-2c(C(=O)[*:2])c(N)c1=O; NMeV = CN[C@H](C(=O)O)C(C)C; Sar = CNCC(=O)O

Biological target: T1, HCV NS3 helicase NS3h_1b(con1) (Hepatitis C virus genotype 1b, UniProt Q9WMX2)
T1 construct: truncated C-terminally His-tagged NS3 proteins lacking the N-terminal protease, called NS3h; His-tag (C); made in house
T1 sequence (Q9WMX2 1192-1657): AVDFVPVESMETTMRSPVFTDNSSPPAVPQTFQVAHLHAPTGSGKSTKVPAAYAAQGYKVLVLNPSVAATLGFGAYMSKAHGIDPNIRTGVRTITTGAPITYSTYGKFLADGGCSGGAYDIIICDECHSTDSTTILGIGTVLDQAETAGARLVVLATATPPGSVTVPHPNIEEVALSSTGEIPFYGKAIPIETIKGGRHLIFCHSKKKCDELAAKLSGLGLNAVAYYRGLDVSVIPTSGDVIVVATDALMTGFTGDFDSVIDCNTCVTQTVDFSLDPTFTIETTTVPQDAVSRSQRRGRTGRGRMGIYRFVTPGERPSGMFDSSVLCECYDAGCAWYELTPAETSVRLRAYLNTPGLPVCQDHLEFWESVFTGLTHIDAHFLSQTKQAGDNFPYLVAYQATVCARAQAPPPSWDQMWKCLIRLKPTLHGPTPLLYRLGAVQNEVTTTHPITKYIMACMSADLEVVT
Test: MBHA screen of NCI mechanistic set library at 20 μM (percent inhibition, compound interference)
Assay type: biochemical
Settings: compounds at 20 μM; for Inh. (%) (Inhibition): calculated from Equation 1
Method: All molecular beacon-based helicase assays (MBHAs) were performed according to known methods (Belon & Frick (2008) supra; Belon & Frick (2009) supra). […] In each flat, black 384-well plate, 56 compounds were tested, in triplicate, along with three negative controls (DMSO only), three positive controls (500 nM dT20), and two wells with no enzyme. Fluorescence was read before ATP (F0) addition and 30 minutes after ATP was added to 1 mM (F30) using a Tecan Infinite M200 fluorescence microplate reader with excitation and emission wavelengths set to 643 and 670 nm, respectively. Percent inhibition was calculated with equation 1, and compound interference in the MBHA was calculated with equation 2.
In Equations 1 and 2, Fc0 is the fluorescence of the reactions containing the test compound before adding ATP, Fc30 is the fluorescence of the test compound reaction 30 minutes after adding ATP. F(−)0 is the average of three DMSO-only negative control reactions before adding ATP and F(−)30 is the average of three DMSO-only reactions 30 minutes after adding ATP.
To identify HCV helicase inhibitors, the MBHA was first used to screen the National Cancer Institute Developmental Therapeutics Program's mechanistic set library. In total, 827 compounds (at 20 μM) were screened using a MBHA with a DNA substrate (Table 1). Compounds were ranked by their ability to inhibit HCV helicase-catalyzed DNA unwinding as calculated from Equation 1.
Compound interference in the MBHA was evaluated by comparing the fluorescence of reactions containing each compound to the fluorescence of DMSO-only negative controls before ATP was added.

[1] = MBHA with DNA substrate, assay interference calculated with Equation 2
[2] = assay interference calculated with Equation 2 (fluorescence vs DMSO-only controls before ATP)

| Int.* (Ratio) (Interference) [1] | Inh. (%) (Inhibition) (MBHA with DNA substrate) | Inh. (%) (Inhibition) (MBHA with a DNA substrate) | Int.* (Ratio) (Interference) [2] | SMILES |
| --- | --- | --- | --- | --- |
| 0.87 | 3.7 |  |  | O=C(O)c1ccc(NC(c2ccccc2)c2ccc3cccnc3c2O)cc1 (stereo not shown) [Compound 1011] |
|  |  | −22.0 | 1.01 | Cc1cc(O)c(C(C)C)cc1C1(c2cc(C(C)C)c(O)cc2C)OC(=O)c2ccccc21 [Compound 2186] |
| 1.01 | −15.7 |  |  | O=Nc1ccc(O)c2ncccc12 [Compound 3852] |
| 0.92 | 5.7 |  |  | c1ccc(-c2cccc(-c3ccccn3)n2)nc1 [Compound 3905] |
|  |  | −27.3 | 1.09 | CC1=CC(=O)c2ccccc2C1=O [Compound 4170] |
| 1.01 | −9.2 |  |  | Cc1ccc2ccc3ccc(C)nc3c2n1 [Compound 4280] |
| 1.01 | −15.4 |  |  | O=[N+]([O-])c1ccc(N=Nc2c(O)[nH]c3ccccc23)c([N+](=O)[O-])c1 [Compound 4810] |
|  |  | −4.5 | 0.90 | COc1ccc(O)cc1 [Compound 4960] |
|  |  | 7.0 | 1.02 | Nc1nc(N)c(N=Nc2ccccc2)c(=O)[nH]1 [Compound 5200] |
|  |  | 10.6 | 0.97 | Nc1ccccc1N [Compound 5354] |
| 0.97 | −0.5 |  |  | O=C1c2cccc(O)c2C(=O)c2c(O)cccc21 [Compound 7210] |
| 0.86 | 20.2 |  |  | Cc1nc(N)nc(N)c1-c1ccc(Cl)c(Cl)c1 [Compound 7364] |
| 1.07 | −18.7 |  |  | Nc1ccc(N)c2c1C(=O)c1ccccc1C2=O [Compound 7833] |
| 1.06 | 5.6 |  |  | O=C1c2ccccc2C(=O)c2c(O)c(O)cc(O)c21 [Compound 10447] |
| 1.05 | 2.5 |  |  | CC1=C(O)c2ccccc2C(=O)C1=O [Compound 11897] |
|  |  | −4.3 | 0.80 | CC(C)=CCC1=C(O)c2ccccc2C(=O)C1=O [Compound 11905] |
| 1.10 | −18.9 |  |  | CN(C)CCOc1ccc(I)cc1Cc1ccccc1.Cl [Compound 11930] |
| 0.95 | 4.4 |  |  | O=c1c(Br)c(-c2ccccc2)[nH]c2ccccc12 [Compound 12825] |
| 1.13 | −14.1 |  |  | Nc1ccc2c(c1)S(=O)(=O)c1cc(N)ccc1-2 [Compound 13966] |
| 0.28 | 31.8 |  |  | Cc1cc2cc3cc(C)c(N)cc3nc2cc1N [Compound 13973] |
| 1.08 | 55.1 |  |  | CCN(CC)CCCC(C)Nc1c2ccc(Cl)cc2nc2ccc(OC)cc12.Cl.Cl (stereo not shown) [Compound 14229] |
| 0.85 | 30.3 |  |  | CCN(CC)CCNc1ccc(C)c2sc3ccccc3c(=O)c12.Cl [Compound 14574] |

The remaining lines, values behind:

| SMILES | Int.* (Ratio) (Interference) [1] | Inh. (%) (Inhibition) (MBHA with DNA substrate) | Inh. (%) (Inhibition) (MBHA with a DNA substrate) | Int.* (Ratio) (Interference) [2] |
| --- | --- | --- | --- | --- |
| NC1(C(=O)O)CCCC1 [Compound 1026] |  |  | 9.0 | 0.90 |
| CC(C)(Br)C(=O)C(Br)Br [Compound 1027] |  |  | 7.0 | 0.91 |
| c1coc(CNc2ncnc3[nH]ncc23)c1 [Compound 1620] |  |  | −3.0 | 1.06 |
| CN(C)C(=S)SSC(=S)N(C)C [Compound 1771] | 0.98 | 0.2 |  |  |
| C1CCNCC1.S=C(S)N1CCCCC1 [Compound 1906] | 1.17 | −1.6 |  |  |
| CC(C)C1(Cl)CCC2C3(C)CCCC(C)(C(=O)O)C3CC(Cl)C2(Cl)C1Cl (stereo not shown) [Compound 2979] | 1.00 | −12.5 |  |  |
| Cc1c2oc3c(C)ccc(C(=O)N[C@@H]4C(=O)N[C@H](C(C)C)C(=O)N5CCC[C@H]5C(=O)N(C)CC(=O)N(C)[C@@H](C(C)C)C(=O)O[C@@H]4C)c3nc-2c(C(=O)N[C@@H]2C(=O)N[C@H](C(C)C)C(=O)N3CCC[C@H]3C(=O)N(C)CC(=O)N(C)[C@@H](C(C)C)C(=O)O[C@@H]2C)c(N)c1=O [Compound 3053] (I: T[dV]P[Sar][NMeV] / II: T[dV]P[Sar][NMeV]; ester I:1-I:C, II:1-II:C; linker I:N-II:N via Actinocin(9to1)) | 0.55 | 67.5 |  |  |
| C1COCCN1.S=C(S)N1CCOCC1 [Compound 4114] |  |  | 7.2 | 1.15 |
| COC1CC(OC2CCC3(C=O)C4CCC5(C)C(C6=CC(=O)OC6)CCC5(O)C4CCC3(O)C2)OC(C)C1OC1OC(CO)C(O)C(O)C1O (stereo not shown) [Compound 4320] | 0.95 | −12.6 |  |  |
| C=C(C)[C@@H]1CC[C@]2(CO)CC[C@]3(C)[C@H](CC[C@@H]4[C@@]5(C)CC[C@H](O)C(C)(C)[C@@H]5CC[C@]43C)[C@@H]12 [Compound 4644] | 1.32 | −13.9 |  |  |
| Nc1nncs1 [Compound 4728] | 1.07 | 5.9 |  |  |
| CCN(CC)C(=S)S [Compound 4857] | 1.07 | −8.0 |  |  |
| CO[C@H]1[C@@H](O)[C@@H](C)O[C@H](O[C@H]2[C@H](Oc3cccc4c(O)c5c(=O)oc6ccc(C)c7c(=O)oc(c34)c5c67)O[C@H](C)[C@H](O)[C@@H]2O)[C@@H]1O [Compound 5159] | 1.03 | 38.6 |  |  |
| CC1OC(O[C@@H]2C=C3CC[C@@H]4[C@H](CC[C@]5(C)[C@@H](c6ccc(=O)oc6)CC[C@]45O)[C@@]3(C)CC2)C(O)C(O)C1O (stereo partly shown) [Compound 7521] | 0.94 | 5.5 |  |  |
| COC1CC(O[C@H]2CC[C@]3(C=O)[C@H]4CC[C@]5(C)[C@@H](C6=CC(=O)OC6)CC[C@]5(O)[C@@H]4CC[C@]3(O)C2)OC(C)C1O (stereo partly shown) [Compound 7522] |  |  | −24.0 | 0.97 |
| COC1CC(OC2CCC3(C=O)C4CCC5(C)C(C6=CC(=O)OC6)CCC5(O)C4CCC3(O)C2)OC(C)C1OC1OC(COC2OC(CO)C(O)C(O)C2O)C(O)C(O)C1O (stereo not shown) [Compound 7530] |  |  | −19.7 | 0.98 |
| CC(=O)O[C@H]1C[C@H](O[C@H]2[C@@H](O)C[C@H](O[C@H]3[C@@H](O)C[C@H](O[C@H]4CC[C@@]5(C)[C@H](CC[C@@H]6[C@@H]5CC[C@]5(C)[C@@H](C7=CC(=O)OC7)CC[C@]65O)C4)O[C@@H]3C)O[C@@H]2C)OC(C)[C@H]1O[C@@H]1O[C@H](CO)[C@@H](O)[C@H](O)[C@H]1O (stereo partly shown) [Compound 7532] |  |  | −3.4 | 0.89 |
| C1CN1c1nc(N2CC2)nc(N2CC2)n1 [Compound 9706] | 0.98 | −10.9 |  |  |
| CCCCCCCC/C=C\CCCCCCCC(=O)O [Compound 9856] | 0.84 | 12.6 |  |  |
| COc1ccc2nc(C)cc(NCCCCCCCCCNc3cc(C)nc4ccc(OC)cc34)c2c1 [Compound 10010] | 0.23 | 56.7 |  |  |
| CC(C)=CC1C(C(=O)O)C1(C)C (stereo not shown) [Compound 11779] | 0.89 | 16.8 |  |  |
| COc1cccc2c1cc([N+](=O)[O-])c1c(C(=O)O)cc3c(c12)OCO3 [Compound 11926] | 1.14 | −12.8 |  |  |
| CC1=CC(O)C(O)C2(C)C1CC1OC(=O)C(O)C3C(C)C(O)C4(O)OCC13C42 (stereo not shown) [Compound 14974] | 0.99 | 20.9 |  |  |
| CC[C@](C)(O)C(=O)O[C@H]1C(=O)O[C@@H]2C[C@H]3C(C)=C[C@H](O)[C@@H](O)[C@]3(C)[C@H]3[C@@]4(O)OC[C@]32[C@@H]1[C@@H](C)[C@H]4O [Compound 14975] |  |  | −20.8 | 1.03 |
| O=[N+]([O-])[O-].O=[N+]([O-])[O-].O=[N+]([O-])[O-].[Ga+3] [Compound 15200] | 0.75 | 53.4 |  |  |
